From PMC11246995 (Frontiers in Molecular Biosciences, 2024)

Legend:
[1] = Qualitative MALDI MSI with ion mobility: spatial distribution of rotenone and its metabolites in kidney and liver; format: in vivo; details: rat, single oral 2 mg/kg, 24 h
Description: Agarose-embedded kidney and liver organs were cut longitudinally at 5 µm thickness at −20°C using a cryostat (Leica CM 1950; Leica Biosystems, Germany), and thaw-mounted onto clean glass slides. The agarose-embedded kidney or liver was trimmed up to 500 µm to remove the agarose covering a portion of the organ. Subsequently, seven layers from the outer portion towards the middle were identified with a 100 µm distance between each layer. Representative cryosections were obtained from each identified layer of the untreated and drug-treated rat kidney. The agarose surrounding the kidney or liver cryosectioned tissue was manually removed before mounting onto a glass slide. Prior to matrix coating, the glass slides mounted with thin kidney cryosections were placed in a box and kept in a vacuum desiccator cabinet overnight ([Costa et al., 2013]; [Marques et al., 2014]; [Dalisay et al., 2015]; [Suarez et al., 2023]).
Matrix solution was applied to evenly coat the entire tissue surface using a HTX M5 Sprayer (HTX Technologies, LLC, Carrboro, NC, United States). The parameter settings were optimized to avoid metabolite delocalization and compromised spatial integrity. […]

[2] = ref Udeani et al., 2001; Organization for Economic Cooperation and Development, 2020; cited from earlier work
kidney tissues = experiment: MALDI MSI ion intensity of renal endogenous metabolites, rotenone-treated vs untreated kidney; format: in vivo, rat; parameters: key to Ion Intensity in Rotenone-treated Kidney Tissues: N-Acetylhistidine / Ion Intensity in Rotenone-treated Kidney Tissues: O-Phosphotyrosine / Ion Intensity in Rotenone-treated Kidney Tissues: Adenosine diphosphate / Ion Intensity in Rotenone-treated Kidney Tissues: LysoPC(P-16:0) / Ion Intensity in Rotenone-treated Kidney Tissues: LysoPC(16:1) / Ion Intensity in Rotenone-treated Kidney Tissues: LysoPC(16:0) / Ion Intensity in Rotenone-treated Kidney Tissues: LysoPC(17:0) / Ion Intensity in Rotenone-treated Kidney Tissues: LysoPC(18:2) / Ion Intensity in Rotenone-treated Kidney Tissues: L-carnitine / Ion Intensity in Rotenone-treated Kidney Tissues: LysoPC(18:1) / Ion Intensity in Rotenone-treated Kidney Tissues: LysoPC(20:4) / Ion Intensity in Rotenone-treated Kidney Tissues: Phosphorylcholine / Ion Intensity in Rotenone-treated Kidney Tissues: Adenosine monophosphate / Ion Intensity in Rotenone-treated Kidney Tissues: Creatinine / Ion Intensity in Rotenone-treated Kidney Tissues: Histidine / Ion Intensity in Rotenone-treated Kidney Tissues: Phenylalanine / Ion Intensity in Rotenone-treated Kidney Tissues: 3-methylhistidine / Ion Intensity in Rotenone-treated Kidney Tissues: Arginine: ↑ indicates higher ion intensity level than that of the control group; ↓ indicates lower ion intensity level than that of the control group; *p < 0.05; **p < 0.01; ***p < 0.001; details: vs control; for Ion intensity in rotenone-treated kidney tissues: Glycero-3-phosphocholine / Ion intensity in rotenone-treated kidney tissues: Inosine / Ion intensity in rotenone-treated kidney tissues: LysoPC(18:0): [M+K]+
Description: Rats were sacrificed 24 h after drug administration, and the kidney and liver organs were immediately removed, flash-frozen with liquid nitrogen, and stored at −80°C in a freezer for long-term storage. The administration and harvesting of organs were conducted by the Pharmalytics Corporation, accredited by the Food and Drug Administration (FDA, Philippines) for bioavailability and bioequivalence research. The animal study was reviewed and approved by the Institutional Animal Care and Use Committee (IACUC) Esteleydes Animal Laboratory and Research Facility and by the Bureau of Animal Industry—Animal Health and Welfare Division in the Philippines.
To identify possible metabolic alterations, the m/z values of endogenous compounds found in kidney were extracted from the human metabolome database (http://www.hmdb.ca). The spatial mapping of endogenous compounds was visualized by MALDI HDMS imaging. The detection of metabolite biomarkers was supported by their spatial distribution, normalized ion intensity, m/z accuracy, and similar drift time bins in thin tissues sectioned from the seven identified layers of drug-treated and control rat kidney.
MALDI HDMS raw data was imported into High-Definition Imaging (HDI) software v1.5 (Waters Corporation, Manchester, United Kingdom). Data processing was performed by detecting 10,000 intense peaks between a mass range of m/z 50–750, a drift time maximum of 200 bins, and a lock mass-based correction at m/z 464.6064. Following data processing, peak picking was carried out and data was normalized based on the total ion current (TIC). The spatial distribution of rotenone and kidney endogenous molecules from the m/z peak list was visualized using the HDI software. […] The tentative identification and assignment of kidney metabolites were based on the metabolites in the human metabolome database (http://www.hmdb.ca). The m/z values and structure of these renal endogenous molecules were verified using PubChem (https://pubchem.ncbi.nlm.nih.gov), ChemDraw Professionals, and by the related literature ([Jung et al., 2016]; [Nizioł et al., 2020]; [Zhu Y. et al., 2022]).
A multivariate analysis was performed by importing the merged CSV file of processed MALDI image data into EZinfo v3.0 (Waters Corporation, Manchester, United Kingdom). Principal component analysis (PCA) was used to find patterns or trend in the MALDI dataset of the control and drug-treated groups. A peak list of biomolecules was manually created for PCA analysis from the laser-ablated kidney tissue sections. Pareto variance was used to scale the x-variable and to eliminate any bias in this unsupervised algorithm. Similar and far away observations between the dataset were illustrated based on the t[1] and t[2] indices. Meanwhile, the statistical differences between the mass ion intensity of endogenous compounds in two treatment groups were analyzed using the Student’s t-test of GraphPad Prism version 9.4.0 (GraphPad Software Inc., San Diego, CA, United States). The significance threshold was set at p < 0.05 (*), p < 0.01 (**), and p < 0.001 (***).

rats = details: ref Jiang et al. (2017); cited from earlier work
[3] = rat, single oral 2 mg/kg, 24 h, [M+H]+

**Q.** Which results are given for `C=C(C)[C@H]1Cc2c(ccc3c2O[C@@H]2COc4cc(OC)c(OC)cc4[C@@H]2C3=O)O1` [rotenone, Rotenone]?
**A.** biotransformed metabolites of rotenone in kidney tissue sections (MALDI MSI) ([1]; kidney): no biotransformed metabolites of rotenone were detected; biotransformed metabolites of rotenone in liver tissues (MALDI MSI) ([1]; liver): no biotransformed metabolites; metabolic clearance rate [2]: approximately 100 mL/min/kg; Ion Intensity in Rotenone-treated Kidney Tissues: 3-methylhistidine (kidney tissues; Table S1, [M+H]+): ↓; Ion Intensity in Rotenone-treated Kidney Tissues: Adenosine diphosphate (kidney tissues; Table S1, [M+H]+): ↑; Ion Intensity in Rotenone-treated Kidney Tissues: Adenosine monophosphate (kidney tissues; Table S1, [M+H]+): ↓; Ion Intensity in Rotenone-treated Kidney Tissues: Arginine (kidney tissues; Table S1, [M+H]+): ↓; Ion Intensity in Rotenone-treated Kidney Tissues: Creatinine (kidney tissues; Table S1, [M+H]+): ↓; Ion Intensity in Rotenone-treated Kidney Tissues: Histidine (kidney tissues; Table S1, [M+H]+): ↑; Ion Intensity in Rotenone-treated Kidney Tissues: L-carnitine (kidney tissues; Table S1, [M+H]+): ↑; Ion Intensity in Rotenone-treated Kidney Tissues: LysoPC(16:0) (kidney tissues; Table S1, [M+H]+): ↓; Ion Intensity in Rotenone-treated Kidney Tissues: LysoPC(16:1) (kidney tissues; Table S1, [M+H]+): ↑; Ion Intensity in Rotenone-treated Kidney Tissues: LysoPC(17:0) (kidney tissues; Table S1, [M+H]+): ↓; Ion Intensity in Rotenone-treated Kidney Tissues: LysoPC(18:1) (kidney tissues; Table S1, [M+H]+): ↑; Ion Intensity in Rotenone-treated Kidney Tissues: LysoPC(18:2) (kidney tissues; Table S1, [M+H]+): ↑; Ion Intensity in Rotenone-treated Kidney Tissues: LysoPC(20:4) (kidney tissues; Table S1, [M+H]+): ↑; Ion Intensity in Rotenone-treated Kidney Tissues: LysoPC(P-16:0) (kidney tissues; Table S1, [M+H]+): ↓; Ion Intensity in Rotenone-treated Kidney Tissues: N-Acetylhistidine (kidney tissues; Table S1, [M+H]+): ↓; Ion Intensity in Rotenone-treated Kidney Tissues: O-Phosphotyrosine (kidney tissues; Table S1, [M+H]+): ↓; Ion Intensity in Rotenone-treated Kidney Tissues: Phenylalanine (kidney tissues; Table S1, [M+H]+): ↓; Ion intensity in rotenone-treated kidney tissues: Choline (kidney tissues; Table S1, [M+H]+): ↓***; Ion intensity in rotenone-treated kidney tissues: Sphingomyelin (D18:1/16:0) (kidney tissues; Table S1, [M+H]+): ↑*; Ion intensity in rotenone-treated kidney tissues: Glycero-3-phosphocholine (kidney tissues; Table S1): ↓*; Ion intensity in rotenone-treated kidney tissues: Inosine (kidney tissues; Table S1): ↓**; Ion intensity in rotenone-treated kidney tissues: LysoPC(18:0) (kidney tissues; Table S1): ↓**; Ion Intensity in Rotenone-treated Kidney Tissues: Phosphorylcholine (kidney tissues; Table S1, [M]+): ↑; Ion intensity in rotenone-treated kidney tissues: Choline (kidney tissues; [3]): ↓***; Ion intensity in rotenone-treated kidney tissues: Sphingomyelin (D18:1/16:0) (kidney tissues; [3]): ↑*; Ion intensity in rotenone-treated kidney tissues: Glycero-3-phosphocholine (kidney tissues; rat, single oral 2 mg/kg, 24 h): ↓*; Ion intensity in rotenone-treated kidney tissues: Inosine (kidney tissues; rat, single oral 2 mg/kg, 24 h): ↓**; Ion intensity in rotenone-treated kidney tissues: LysoPC(18:0) (kidney tissues; rat, single oral 2 mg/kg, 24 h): ↓**; ion intensity of choline in kidney tissues treated with rotenone (kidney tissues; p < 0.001): significant decrease; inosine level in treated kidney (kidney tissues; p < 0.01): significant reduction; ion intensity levels of LysoPC(18:0) in rotenone-treated kidney tissues (kidney tissues; p < 0.01): decreased significantly; GPC level in drug-treated kidney tissues (kidney tissues; p < 0.05): decreased significantly; sphingomyelin (D18:1/16:0) level in treated kidney (kidney tissues; p < 0.05): significant increase; oral acute toxicity (rats): 34.10 mg/kg body weight
